Data as given in paper PMC7673538 (PLoS Biology, 2020).
Like-named read-outs stand apart in the source and are kept apart here.

Assays:
human DAT = target: T1, human DAT (Homo sapiens, UniProt Q01959); assay type: cell-based; conditions: for DAT, Mean (Figure 8B): Control = 100; for DAT, Mean as % (Figure 8B): Control = 100%
T1 construct: expressed in transfected cells; host or cells: HEK293 (gift of Dr. Hoener, F. Hoffmann-La Roche)

EV-A71 = assay: microbe, parasite or virus in culture; assay type: cell-based, enterovirus A71; conditions: Enterovirus A
in vitro [1] = conditions: human
CV-B3 [2] = assay: microbe, parasite or virus in culture; assay type: cell-based, coxsackievirus B3; conditions: Enterovirus B, CVB3, BGM
HRV-B14 = assay: microbe, parasite or virus in culture; assay type: cell-based, human rhinovirus; conditions: Human rhinovirus sp.
[3] = tested on: representative EVs and RVs; assay type: cell-based
human NET = target: T2, human NET (Homo sapiens, UniProt P23975); assay type: cell-based; conditions: for NET, Mean (Figure 8B): Control = 100; for NET, Mean as % (Figure 8B): Control = 100%
T2 construct: expressed in transfected cells; host or cells: HEK293 (gift of Dr. Hoener, F. Hoffmann-La Roche)
T2 sequence (P23975 whole entry): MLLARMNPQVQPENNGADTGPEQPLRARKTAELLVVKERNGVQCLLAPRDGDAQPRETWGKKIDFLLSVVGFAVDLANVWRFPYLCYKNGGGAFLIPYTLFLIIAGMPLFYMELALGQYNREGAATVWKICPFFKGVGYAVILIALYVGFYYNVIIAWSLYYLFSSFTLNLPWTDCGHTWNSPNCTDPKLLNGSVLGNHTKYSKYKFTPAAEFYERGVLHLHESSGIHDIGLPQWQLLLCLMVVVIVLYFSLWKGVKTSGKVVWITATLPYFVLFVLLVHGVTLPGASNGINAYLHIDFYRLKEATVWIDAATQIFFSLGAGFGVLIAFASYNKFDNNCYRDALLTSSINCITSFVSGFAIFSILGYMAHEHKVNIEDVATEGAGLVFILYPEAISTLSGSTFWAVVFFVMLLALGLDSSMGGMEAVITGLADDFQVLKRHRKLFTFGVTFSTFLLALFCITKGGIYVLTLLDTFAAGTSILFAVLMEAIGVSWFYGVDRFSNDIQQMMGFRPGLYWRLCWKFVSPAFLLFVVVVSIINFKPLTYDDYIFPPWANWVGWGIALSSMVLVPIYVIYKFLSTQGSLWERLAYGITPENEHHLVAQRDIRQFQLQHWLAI

HRV-A2 = assay: microbe, parasite or virus in culture; assay type: cell-based, human rhinovirus; conditions: Human rhinovirus sp., HRVA2, HeLa R19, read-out: EC50 HRV-A2
in vitro [4] = conditions: human; remark: listed apart in the source
CV-A24 = assay: microbe, parasite or virus in culture; assay type: cell-based, coxsackievirus A24
in vitro [5] = conditions: monkey
CV-B3 [6] = assay: microbe, parasite or virus in culture; assay type: cell-based, coxsackievirus B3; conditions: Enterovirus B
EV-D68 = assay: microbe, parasite or virus in culture; assay type: cell-based, enterovirus D68; conditions: for EC50: Enterovirus D
human SERT = target: T3, human SERT (Homo sapiens, UniProt P31645); assay type: cell-based; conditions: for SERT, Mean (Figure 8B): Control = 100.00; for SERT, Mean as % (Figure 8B): Control = 100%
T3 construct: expressed in transfected cells; host or cells: HEK293 (gift of Dr. Hoener, F. Hoffmann-La Roche)
T3 sequence (P31645 whole entry): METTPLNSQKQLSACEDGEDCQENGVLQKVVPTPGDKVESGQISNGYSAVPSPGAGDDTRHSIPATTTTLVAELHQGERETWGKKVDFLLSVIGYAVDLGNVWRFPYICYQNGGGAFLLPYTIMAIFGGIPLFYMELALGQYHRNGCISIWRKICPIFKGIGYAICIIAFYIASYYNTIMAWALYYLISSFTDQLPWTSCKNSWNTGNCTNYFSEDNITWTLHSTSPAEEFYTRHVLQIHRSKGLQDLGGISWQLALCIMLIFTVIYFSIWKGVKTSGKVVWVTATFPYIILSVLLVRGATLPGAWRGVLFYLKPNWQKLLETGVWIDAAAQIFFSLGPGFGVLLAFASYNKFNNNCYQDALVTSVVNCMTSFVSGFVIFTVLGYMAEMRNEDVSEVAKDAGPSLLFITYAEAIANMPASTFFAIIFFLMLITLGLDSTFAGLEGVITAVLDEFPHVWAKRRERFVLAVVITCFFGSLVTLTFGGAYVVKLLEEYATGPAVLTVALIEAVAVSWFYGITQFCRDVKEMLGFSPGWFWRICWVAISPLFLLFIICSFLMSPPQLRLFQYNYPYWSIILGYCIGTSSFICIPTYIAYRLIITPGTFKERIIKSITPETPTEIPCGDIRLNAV

T1 sequence (Q01959 whole entry): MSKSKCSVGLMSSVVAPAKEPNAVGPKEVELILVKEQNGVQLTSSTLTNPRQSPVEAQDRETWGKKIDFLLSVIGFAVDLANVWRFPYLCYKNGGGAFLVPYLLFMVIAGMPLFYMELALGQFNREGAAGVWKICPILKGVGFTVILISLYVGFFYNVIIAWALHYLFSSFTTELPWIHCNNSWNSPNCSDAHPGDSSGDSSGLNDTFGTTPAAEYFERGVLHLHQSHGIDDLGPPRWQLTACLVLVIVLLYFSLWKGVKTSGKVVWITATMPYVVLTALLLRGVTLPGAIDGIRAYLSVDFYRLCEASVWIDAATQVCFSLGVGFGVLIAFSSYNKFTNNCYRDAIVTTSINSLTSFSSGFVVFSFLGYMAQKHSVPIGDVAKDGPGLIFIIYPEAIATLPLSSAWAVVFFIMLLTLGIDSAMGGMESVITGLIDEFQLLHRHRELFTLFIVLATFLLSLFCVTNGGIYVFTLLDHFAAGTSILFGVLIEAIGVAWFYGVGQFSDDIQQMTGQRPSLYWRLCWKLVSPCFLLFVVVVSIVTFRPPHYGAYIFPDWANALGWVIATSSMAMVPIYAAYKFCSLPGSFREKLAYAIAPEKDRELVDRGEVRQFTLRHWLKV

In the case of `O=C(c1ccco1)N(Cc1ccc(F)cc1)c1ccccc1` [Compound 19b, N-(4-Fluorobenzyl)-N-phenylfuran-2-carboxamide], the “DAT, Mean (Figure 8B)” value (human DAT; 1µM) is reported as 94.861, the “DAT, Mean as % (Figure 8B)” value (human DAT; 1µM) is reported as 95% and the “DAT, Mean (Figure 8B)” value (human DAT; 100µM) is reported as 75.9783. For the same compound, the “DAT, Mean as % (Figure 8B)” value (human DAT; 100µM) was 76%, the “inhibition of DAT function (in words)” value (human DAT; HEK293 cells expressing human DAT, 1 μM or 100 μM) was “neither 12a, 19b, 19d, nor the combined compound 12b inhibited” and the EC50 (EV-A71; EVA71, HeLa R19, read-out: EC50 Average) was 2020 nM. The EC50 (EV-A71; EVA71, HeLa R19, read-out: EC50 EV-A71) was 890 ± 90 nM, the EC50 (EV-A71; EVA71, HeLa R19, read-out: EC50 EV-A71 strain BrCr) was 1120 ± 150 nM and the EC50 (EV-A71; EVA71, HeLa R19, read-out: EC50 EV-A71 strain TW/2728/04) was 2100 ± 80 nM. It also gave an EC50 (EV-A71; EVA71, HeLa R19, read-out: EC50 EV-A71 strain TW/2945/98) of 2020 ± 150 nM, an EC50 (EV-A71; EVA71, HeLa R19, read-out: EC50 EV-A71 strain TW/70811/08) of 920 ± 170 nM and an EC50 (EV-A71; EVA71, HeLa R19, read-out: EC50 EV-A71 strain TW/72232/04) of 3830 ± 250 nM. For the same compound, the EC50 (EV-A71; EVA71, HeLa R19, read-out: EC50 EV-A71 strain TW/96016/08) was 1890 ± 20 nM, the EC50 (EV-A71; EVA71 / genotype 2c, HeLa R19, read-out: EC50 EV-A71 WT) was 820 ± 120 nM and the CC50 (in vitro [1]; CC50) was over 100000 nM. The CC50 (in vitro [1]; CC50 Hap1 Average) was over 100000 nM, the CC50 (in vitro [1]; Exp 1 CC50 Hap1) was over 100000 nM and the CC50 (in vitro [1]; Exp 2 CC50 Hap1) was over 100000 nM. The EC50 (CV-B3 [2]; read-out: EC50 BGM Average) was 140 nM, the EC50 (CV-B3 [2]; read-out: Exp 1 EC50 BGM) was 180 nM and the EC50 (CV-B3 [2]; read-out: Exp 2 EC50 BGM) was 90 nM. It also gave an EC50 (HRV-B14; HRVB14, HeLa R19, read-out: EC50 Exp1) of 11100 nM, an EC50 (HRV-B14; HRVB14, HeLa R19, read-out: EC50 Exp2) of 9900 nM and an EC50 (HRV-B14; HRVB14, HeLa R19, read-out: EC50 HRV-B14) of 10500 ± 610 nM. For the same compound, the “inhibition of contemporary/clinical isolates of EV-A71, CV-A24v and EV-D68 (in words)” value [3] was “inhibited all clinical isolates of EV-A71, CV-A24v, and EV-D68 tested”, the “spectrum of antiviral activity (in words)” value [3] was “inhibited all representative EVs and RVs” and the “NET, Mean (Figure 8B)” value (human NET; 1µM) was 124.304. For the same compound, the “NET, Mean as % (Figure 8B)” value (human NET; 1µM) was 124%, the “NET, Mean (Figure 8B)” value (human NET; 100µM) was 113.384 and the “NET, Mean as % (Figure 8B)” value (human NET; 100µM) was 113%. The “inhibition of NET function (in words)” value (human NET; HEK293 cells expressing human NET, 1 μM or 100 μM) was “neither 12a, 19b, 19d, nor the combined compound 12b inhibited”, the EC50 (HRV-A2) was 22200 ± 610 nM and the CC50 (in vitro [4]; CC50 Average) was over 30000 nM. For the same compound, the CC50 (in vitro [4]; CC50 HelaR19 Average) was over 100000 nM, the CC50 (in vitro [4]; Exp 1 CC50) was over 30000 nM and the CC50 (in vitro [4]; Exp 1 CC50 HelaR19) was over 100000 nM. The CC50 (in vitro [4]; Exp2 CC50) was over 30000 nM, the CC50 (in vitro [4]; Exp 2 CC50 HelaR19) was over 100000 nM and the EC50 (CV-A24; Enterovirus C, CVA24, HeLa R19, read-out: EC50 CV-A24) was 6390 ± 740 nM. For the same compound, the EC50 (CV-A24; Enterovirus C, CVA24, HeLa R19, read-out: EC50 CV-A24 strain Joseph) was 4990 ± 610 nM, the EC50 (CV-A24; Enterovirus C, CVA24, HeLa R19, read-out: EC50 Exp1) was 5650 nM and the EC50 (CV-A24; Enterovirus C, CVA24, HeLa R19, read-out: EC50 Exp2) was 7120 nM. The EC50 (CV-A24; read-out: EC50 Exp1) was 4380 nM, the EC50 (CV-A24; read-out: EC50 Exp2) was 5600 nM and the CC50 (in vitro [5]; CC50) was over 100000 nM. It also gave a CC50 (in vitro [5]; CC50 BGM Average) of over 100000 nM, a CC50 (in vitro [5]; Exp 1 CC50 BGM) of over 100000 nM and a CC50 (in vitro [5]; Exp 2 CC50 BGM) of over 100000 nM. For the same compound, the EC50 (CV-B3 [6]; CVB3, HAP1, read-out: EC50 Hap1 Average) was 350 nM, the EC50 (CV-B3 [6]; CVB3, HAP1, read-out: Exp 1 EC50 Hap1) was 150 nM and the EC50 (CV-B3 [6]; CVB3, HAP1, read-out: Exp 2 EC50 Hap1) was 550 nM. The “cross-resistance of 19d-resistant EV-D68 virus pools (in words)” value (EV-D68) was “cross-resistance”, the EC50 (EV-D68; EVD68, HeLa R19, […], read-out: EC50 Exp1) was 1870 nM and the EC50 (EV-D68; EVD68, HeLa R19, read-out: EC50 Average) was 830 nM. It also gave an EC50 (EV-D68; EVD68, HeLa R19, read-out: EC50 EV-D68) of 500 ± 260 nM, an EC50 (EV-D68; EVD68, HeLa R19, read-out: EC50 EV-D68 strain 4310900947) of 1850 ± 180 nM and an EC50 (EV-D68; EVD68, HeLa R19, read-out: EC50 EV-D68 strain 4310901348) of 1710 ± 680 nM. The EC50 (EV-D68; EVD68, HeLa R19, read-out: EC50 EV-D68 strain 4310902042) was 910 ± 920 nM, the EC50 (EV-D68; EVD68, HeLa R19, read-out: EC50 EV-D68 strain 4310902284) was 1290 ± 210 nM and the EC50 (EV-D68; EVD68, HeLa R19, read-out: EC50 EV-D68 strain 4311000742) was 1310 ± 900 nM. The EC50 (EV-D68; EVD68, HeLa R19, read-out: EC50 EV-D68 strain Fermon) was 580 ± 100 nM, the EC50 (EV-D68; EVD68 / genotype 2c, HeLa R19, read-out: EC50 EV-D68 WT) was 830 ± 90 nM and the “SERT, Mean (Figure 8B)” value (human SERT; 1µM) was 104.08. For the same compound, the “SERT, Mean as % (Figure 8B)” value (human SERT; 1µM) was 104%, the “SERT, Mean (Figure 8B)” value (human SERT; 100µM) was 84.31 and the “SERT, Mean as % (Figure 8B)” value (human SERT; 100µM) was 84%. The “inhibition of SERT-mediated uptake (in words)” value (human SERT; HEK293 cells expressing human SERT, 1 and 100 μM) was “neither 12a, 19b, 19d, nor the combined compound 12b inhibited” and the “cytotoxicity (in words)” value (HeLa R19 cells) was “did not show any cytotoxicity”.
